Measurements published in patent publication US9611278B2 (Merck Sharp & Dohme Corp., priority 2013, dated 2017).

Molecular target: T1, sGC α1/β1 heterodimer stably expressed in CHO-K1 cells (CHO-K1/sGC) (Homo sapiens, UniProt Q02108+Q02153)
T1 construct: expressed in transfected cells
T1 sequence (Q02108 1-690): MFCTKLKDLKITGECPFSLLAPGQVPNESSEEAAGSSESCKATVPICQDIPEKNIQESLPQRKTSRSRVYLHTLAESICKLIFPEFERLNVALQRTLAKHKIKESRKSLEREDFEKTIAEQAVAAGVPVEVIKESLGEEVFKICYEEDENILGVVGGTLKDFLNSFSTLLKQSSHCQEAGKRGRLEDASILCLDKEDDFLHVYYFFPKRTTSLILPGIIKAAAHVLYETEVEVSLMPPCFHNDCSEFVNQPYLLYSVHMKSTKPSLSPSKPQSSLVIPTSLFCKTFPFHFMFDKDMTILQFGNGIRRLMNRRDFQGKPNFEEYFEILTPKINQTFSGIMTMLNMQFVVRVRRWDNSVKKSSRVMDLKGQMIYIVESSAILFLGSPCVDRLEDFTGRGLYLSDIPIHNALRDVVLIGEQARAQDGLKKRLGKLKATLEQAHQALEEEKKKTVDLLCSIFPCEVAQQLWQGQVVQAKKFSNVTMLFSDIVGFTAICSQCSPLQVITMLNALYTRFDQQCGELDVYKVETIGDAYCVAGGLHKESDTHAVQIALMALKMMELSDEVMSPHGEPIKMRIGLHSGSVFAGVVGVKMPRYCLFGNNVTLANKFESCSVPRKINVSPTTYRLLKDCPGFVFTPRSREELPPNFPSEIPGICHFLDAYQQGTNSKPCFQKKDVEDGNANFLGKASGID
T1 sequence (Q02153 1-619): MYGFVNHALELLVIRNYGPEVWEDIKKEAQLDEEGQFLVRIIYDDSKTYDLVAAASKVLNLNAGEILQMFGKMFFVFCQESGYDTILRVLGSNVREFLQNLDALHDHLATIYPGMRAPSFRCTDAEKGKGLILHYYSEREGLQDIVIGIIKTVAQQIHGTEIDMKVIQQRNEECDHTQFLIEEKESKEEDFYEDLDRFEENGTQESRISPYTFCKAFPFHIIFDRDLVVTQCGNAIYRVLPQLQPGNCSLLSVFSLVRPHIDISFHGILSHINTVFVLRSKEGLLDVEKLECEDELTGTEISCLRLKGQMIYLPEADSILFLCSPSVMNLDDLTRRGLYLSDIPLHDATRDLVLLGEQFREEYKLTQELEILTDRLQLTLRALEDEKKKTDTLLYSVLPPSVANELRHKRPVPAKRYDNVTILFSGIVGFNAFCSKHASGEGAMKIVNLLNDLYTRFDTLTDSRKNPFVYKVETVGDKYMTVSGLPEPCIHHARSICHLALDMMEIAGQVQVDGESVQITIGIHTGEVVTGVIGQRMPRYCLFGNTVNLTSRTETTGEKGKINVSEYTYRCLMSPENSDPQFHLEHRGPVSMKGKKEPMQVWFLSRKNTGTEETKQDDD
Test: Cell-based sGC Functional Assay (CASA Assay)
Conditions: for Emax: CHO-K1, activation as percentage of maximum cGMP production of Compound A (set to 100%), read-out: % Act.; for EC50: inflection point of cGMP generation in CHO-K1/sGC cells, 4P fit, 1 hr at 37° C., read-out: IP
Text: sGC is a heme-containing enzyme that converts GTP to secondary messenger cGMP. Increases in cGMP levels affect several physiological processes including vasorelaxation through multiple downstream pathways. […] Heme-dependent activators (HDAs) preferentially activate sGC containing a ferrous heme group. To determine the effect of sGC activators on enzyme activity, the CASA assay was developed to monitor the generation of cGMP in a cell line that stably expresses the heterodimeric sGC protein.
A CHO-K1 cell line stably expressing the sGC α1/β1 heterodimer was generated using a standard transfection protocol. CHO-K1 cells were transfected with plasmids pIREShyghsGCα1 and pIRESneo-hsGCβ1 simultaneously using FUGENE reagent. Clones that stably express both subunits were selected with hygromycin and neomycin for ˜2 weeks. Clone #7 was chosen for the assay and was designated CHO-K1/sGC. CHO-K1/sGC cells were maintained in F-K12 medium containing 10% heat-inactivated Fetal Bovine Serum (FBS), 100 μg/mL penicillin/streptomycin, 0.5 mg/mL hygromycin and 0.25 mg/mL G418. The cells were then cryopreserved in LN2. On the day of the assay, cells thawed and resuspended in EBSS Assay Buffer (EAB, Sigma, E3024) supplemented with 5 mM MgCl2, 10 mM HEPES (4-(2-hydroxyethyl)piperazine-1-ethanesulfonic acid) and 0.05% BSA (bovine serum albumin) and cell density was then adjusted to 4×10^5/mL with EAB. IBMX (3-isobutyl-1-methylxanthin, 0.5 mM) was added to inhibit degradation of cGMP. Compounds were diluted from DMSO stock solutions and added to the assay at a final DMSO concentration of 2.5%. Cells were incubated with compounds in the presence and absence of 1 μM of Diethylenetriamine/nitric oxide adduct (DETA-NO; Sigma, 17018) for 1 hr at 37° C. At the end of the incubation period, the reaction was terminated and the cells were lysed with the detection reagents from Cisbio Kits. The level of intracellular cGMP was determined using an HTRF-based assay kit (CisBio, 62GM2PEC), which detects the displacement of a fluorescence labeled cGMP from its specific antibody. The cGMP produced by test compounds was directly compared to the maximum cGMP production (this value was set to equal 100% activation.) of the published sGC-HDA Compound A:
(Example 1 in WO 2010/065275, published Jun. 10, 2010). The test compounds' activity were then expressed as a percentage of Compound A, the standard in every experiment. This percent activation was calculated either in the presence or absence of DETA-NO which was then plotted. IP and maximum fold induction was derived using ADA analysis software for 4P fit.

SMILES | Emax [%] | EC50 [nM]
Cn1ncc2c(-c3nc(N)c4c(n3)NC(=O)C4(C)c3cn(C4CCC4)nn3)nc(CCC(F)(F)C(F)(F)F)nc21 (single isomer, unassigned) [Example 74, 4-Amino-5-(1-cyclobutyl-1H-1,2,3-triazol-4-yl)-5-methyl-2-(1-methyl-6-(3,3,4,4,4-pentafluorobutyl)-1H-pyrazolo[3,4-d]pyrimidin-4-yl)-5,7-dihydro-6H-pyrrolo[2,3-d]pyrimidin-6-one] | 120 | 78
C=CCn1cc(C2(C)C(=O)Nc3nc(-c4nc(CCC(F)(F)C(F)(F)F)nc5c4cnn5C)nc(N)c32)nn1 (single isomer, unassigned) [Example 75, 5-(1-allyl-1H-1,2,3-triazol-4-yl)-4-amino-5-methyl-2-(1-methyl-6-(3,3,4,4,4-pentafluorobutyl)-1H-pyrazolo[3,4-d]pyrimidin-4-yl)-5,7-dihydro-6H-pyrrolo[2,3-d]pyrimidin-6-one] | 139 | 175
[2H]C([2H])([2H])n1cc(C2(C)C(=O)Nc3nc(-c4nc(CCC(F)(F)C(F)(F)F)nc5c4cnn5C([2H])([2H])[2H])nc(N)c32)nn1 (single isomer, unassigned) [Example 76, 4-Amino-5-methyl-5-(1-(methyl-d3)-1H-1,2,3-triazol-4-yl)-2-(1-(methyl-d3)-6-(3,3,4,4,4-pentafluorobutyl)-1H-pyrazolo[3,4-d]pyrimidin-4-yl)-5,7-dihydro-6H-pyrrolo[2,3-d]pyrimidin-6-one] | 148 | 168
[2H]C([2H])([2H])n1cc(C2(C)C(=O)Nc3nc(-c4nc(CCC(F)(F)C(F)(F)F)nc5c4cnn5C)nc(N)c32)nn1 (single isomer, unassigned) [Example 77, 4-Amino-5-methyl-2-(1-methyl-6-(3,3,4,4,4-pentafluorobutyl)-1H-pyrazolo[3,4-d]pyrimidin-4-yl)-5-(1-(methyl-d3)-1H-1,2,3-triazol-4-yl)-5,7-dihydro-6H-pyrrolo[2,3-d]pyrimidin-6-one] | 157 | 168
[2H]C([2H])([2H])n1ncc2c(-c3nc(N)c4c(n3)NC(=O)C4(C)c3ccc(F)cn3)nc(CCC(F)(F)C(F)(F)F)nc21 (stereo not shown) [Example 2, 4-Amino-5-(5-fluoropyridin-2-yl)-5-methyl-2-(1-(methyl-d3)-6-(3,3,4,4,4-pentafluorobutyl)-1H-pyrazolo[3,4-d]pyrimidin-4-yl)-5H-pyrrolo[2,3-d]pyrimidin-6(7H)-one] | 135 | 72
Cc1noc(C2(C)C(=O)Nc3nc(-c4nc(Cc5cccc(F)c5F)nc5c4cnn5C)nc(N)c32)n1 (stereo not shown) [Example 5, 4-Amino-2-(6-(2,3-difluorobenzyl)-1-methyl-1H-pyrazolo[3,4-d]pyrimidin-4-yl)-5-methyl-5-(3-methyl-1,2,4-oxadiazol-5-yl)-5,7-dihydro-6H-pyrrolo[2,3-d]pyrimidin-6-one] | 88 | 10
CC(CC(F)(F)F)c1nc(-c2nc(N)c3c(n2)NC(=O)C3(C)c2ccc(F)cn2)c2cnn(C)c2n1 (stereo not shown) [Example 6, 4-Amino-5-(5-fluoropyridin-2-yl)-5-methyl-2-(1-methyl-6-(4,4,4-trifluorobutan-2-yl)-1H-pyrazolo[3,4-d]pyrimidin-4-yl)-5,7-dihydro-6H-pyrrolo[2,3-d]pyrimidin-6-one] | 137 | 604
[2H]C([2H])([2H])n1ncc2c(-c3nc(N)c4c(n3)NC(=O)C4(C)c3ccccn3)nc(CCC(F)(F)C(F)(F)F)nc21 (stereo not shown) [Example 7, 4-Amino-5-methyl-2-(1-(methyl-d3)-6-(3,3,4,4,4-pentafluorobutyl)-1H-pyrazolo[3,4-d]pyrimidin-4-yl)-5-(pyridin-2-yl)-5,7-dihydro-6H-pyrrolo[2,3-d]pyrimidin-6-one] | 147 | 212
[2H]C([2H])([2H])n1ncc2c(-c3nc(N)c4c(n3)NC(=O)C4(C)c3nc(C4CC4)no3)nc(CCC(F)(F)C(F)(F)F)nc21 (stereo not shown) [Example 8, 4-Amino-5-(3-cyclopropyl-1,2,4-oxadiazol-5-yl)-5-methyl-2-(1-(methyl-d3)-6-(3,3,4,4,4-pentafluorobutyl)-1H-pyrazolo[3,4-d]pyrimidin-4-yl)-5,7-dihydro-6H-pyrrolo[2,3-d]pyrimidin-6-one] | 126 | 49
[2H]C([2H])([2H])n1ncc2c(-c3nc(N)c4c(n3)NC(=O)C4(C)c3ncccn3)nc(CCC(F)(F)C(F)(F)F)nc21 (stereo not shown) [Example 9, 4-Amino-5-methyl-2-(1-(methyl-d3)-6-(3,3,4,4,4-pentafluorobutyl)-1H-pyrazolo[3,4-d]pyrimidin-4-yl)-5-(pyrimidin-2-yl)-5,7-dihydro-6H-pyrrolo[2,3-d]pyrimidin-6-one] | 121 | 116
[2H]C([2H])([2H])n1ncc2c(-c3nc(N)c4c(n3)NC(=O)C4(C)c3ccc(C(F)(F)F)nc3)nc(CCC(F)(F)C(F)(F)F)nc21 (stereo not shown) [Example 10, 4-Amino-5-methyl-2-(1-(methyl-d3)-6-(3,3,4,4,4-pentafluorobutyl)-1H-pyrazolo[3,4-d]pyrimidin-4-yl)-5-(6-(trifluoromethyl)pyridin-3-yl)-5,7-dihydro-6H-pyrrolo[2,3-d]pyrimidin-6-one] | 114 | 665
[2H]C([2H])([2H])n1ncc2c(-c3nc(N)c4c(n3)NC(=O)C4(C)c3coc(C)n3)nc(CCC(F)(F)C(F)(F)F)nc21 (stereo not shown) [Example 11, 4-Amino-5-methyl-2-(1-(methyl-d3)-6-(3,3,4,4,4-pentafluorobutyl)-1H-pyrazolo[3,4-d]pyrimidin-4-yl)-5-(2-methyloxazol-4-yl)-5,7-dihydro-6H-pyrrolo[2,3-d]pyrimidin-6-one] | 126 | 626
[2H]C([2H])([2H])n1ncc2c(-c3nc(N)c4c(n3)NC(=O)C4(C)c3ccc(OC)cn3)nc(CCC(F)(F)C(F)(F)F)nc21 (stereo not shown) [Example 12, 4-Amino-5-(5-methoxypyridin-2-yl)-5-methyl-2-(1-(methyl-d3)-6-(3,3,4,4,4-pentafluorobutyl)-1H-pyrazolo[3,4-d]pyrimidin-4-yl)-5,7-dihydro-6H-pyrrolo[2,3-d]pyrimidin-6-one] | 104 | 
